Assay results: patent US20230286946A1, “DIFLUOROMETHYL-PYRIDIN-2-YL TRIAZOLES” (Boehringer Ingelheim International GmbH, priority 2020, published 2023)
pKi: −log10 of the molar value.

molecular target: T1, human GABAA α5β3γ2s receptor (Homo sapiens, UniProt P18507+P31644); assay: Assay A: in vitro inhibition of 3H-flumazenil binding, HEK cells expressing the human GABAA α5β3γ2s receptor; settings: compounds of the present invention; read-out: Assay A: GABAA α5 β3 γ2S Ki
T1 sequence (P18507 1-475): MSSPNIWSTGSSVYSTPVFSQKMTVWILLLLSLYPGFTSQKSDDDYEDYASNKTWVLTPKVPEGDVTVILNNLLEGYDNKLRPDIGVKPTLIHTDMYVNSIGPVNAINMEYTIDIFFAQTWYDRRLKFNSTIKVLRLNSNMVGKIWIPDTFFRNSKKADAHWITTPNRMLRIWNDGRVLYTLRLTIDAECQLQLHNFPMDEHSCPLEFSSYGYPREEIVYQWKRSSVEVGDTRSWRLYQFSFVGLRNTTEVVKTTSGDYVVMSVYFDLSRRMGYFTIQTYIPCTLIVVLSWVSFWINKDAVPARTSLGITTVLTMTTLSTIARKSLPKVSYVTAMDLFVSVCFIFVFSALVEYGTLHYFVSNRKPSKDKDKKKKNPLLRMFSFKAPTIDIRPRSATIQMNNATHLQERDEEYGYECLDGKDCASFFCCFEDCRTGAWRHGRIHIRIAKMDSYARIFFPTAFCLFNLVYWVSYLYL
T1 sequence (P31644 1-462): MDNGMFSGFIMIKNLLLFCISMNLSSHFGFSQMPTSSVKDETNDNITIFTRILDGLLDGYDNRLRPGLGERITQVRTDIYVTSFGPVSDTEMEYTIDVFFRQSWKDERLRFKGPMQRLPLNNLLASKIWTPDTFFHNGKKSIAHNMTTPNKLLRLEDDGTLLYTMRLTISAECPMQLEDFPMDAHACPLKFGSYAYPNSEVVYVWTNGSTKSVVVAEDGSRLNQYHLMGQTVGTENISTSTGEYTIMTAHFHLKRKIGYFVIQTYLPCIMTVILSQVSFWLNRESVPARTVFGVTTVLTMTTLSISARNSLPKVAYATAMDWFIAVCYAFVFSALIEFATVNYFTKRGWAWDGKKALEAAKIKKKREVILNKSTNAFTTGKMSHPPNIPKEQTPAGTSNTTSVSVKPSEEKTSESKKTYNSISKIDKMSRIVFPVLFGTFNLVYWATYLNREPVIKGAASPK
Description: Cell Cultures and Membrane Preparation
HEK-293 cell lines with stable expression of recombinant human GABAA α5ß3 γ2s receptors (plasmid H46/E9/B10) are seeded in T175 polystyrene flasks or roller bottles (1700 cm^2, Fisher Scientific CCI-431191), and cultured (37° C., 5% CO2) in Dulbecco's Modified Eagle Medium (DMEM) with GlutaMAX™ supplemented with 10% fetal bovine serum and one or both of the following antibiotics: hygromycin B ([…]; γ2 subunit) or G418 (0.5 mg/ml; […]).
When the cultures reach confluency, the DMEM is removed and the cells are washed (10 ml for T175 flasks; 50 ml for roller bottles) once in Dulbecco's Phosphate Buffered Saline (DPBS). Following addition of DPBS to the cultures (10 ml for T175 flasks; 100 ml for roller bottles) for approximately 5 min cells are easily detached from the surface by shaking or tapping the flask gently. The cell suspension is transferred to Falcon tubes and centrifuged at 23,500×g for 10 min at 2° C. The pellet is washed once in 15 ml Tris-citrate buffer (50 mM, pH 7.1) using an Ultra-Turrax homogenizer and centrifuged at 2° C. for 10 min at 27,000×g. The washed pellet is re-suspended in 15 ml Tris-citrate buffer and frozen at −80° C. until the day of the binding experiment.
On the day of the experiment the cell membrane preparation is thawed and centrifuged at 2° C. for 10 min at 27,000×g. The pellet is re-suspended, using an Ultra-Turrax homogenizer in Tris-citrate buffer, to 15-50 µg protein per assay and then used for binding assays.
Non-specific binding is determined using clonazepam ([…]).
All dilutions of test compounds and incubation of assay are performed in glass vials/96-vial plates. […] Compounds are dissolved in 100% DMSO (10 mM stock), diluted in 48% ethanol-water, and tested in triplicate in serial 1:3 or 1:10 dilutions. When screening large numbers of compounds only one concentration of each compound is tested in single wells. Reference compounds are not included routinely, but for each experiment performed total and nonspecific binding is compared to data obtained during validation of the assay.
Binding is either terminated by rapid filtration onto
1) Whatman GF/C glass fibre filters using a Brandel Cell harvester, followed by 5 washes with 1 ml ice-cold buffer or onto 2) UniFilter GF/C glass fibre filter plates using a Tomtec cell harvester, followed by washing with approximately 5 ml ice-cold buffer.
The amount of radioactivity on the filters is determined by conventional liquid scintillation counting using a
1) Tri-Garb™ counter (PerkinElmer Life and Analytical Sciences) for separate large filters or
2) Topcount™ counter (PerkinElmer Life and Analytical Sciences) for 96-well filter plates.
Specific binding is total binding minus non-specific binding.
The IC50 value for a test compound is determined based on the equation: […]
where B is the binding in percentage of total specific binding; C is the concentration of test compound; and n is the Hill coefficient. For screening purposes n is set to 1. The IC50 value is calculated from the concentration response curves by the non-linear regression method using the curve-fitting program GraphPad Prism.
The Ki value for a test compound can be calculated from the IC50 value using the equation by Cheng and Prusoff: […]

Row | Structure (SMILES) | pKi
1 | Cc1nnn(-c2ccc(C(F)F)cn2)c1COc1ccc(-c2cnccn2)nn1 [Example 56, 3-({1-[5-(difluoromethyl)pyridin-2-yl]-4-methyl-1H-1,2,3-triazol-5-yl}methoxy)-6-(pyrazin-2-yl)pyridazine] | 11.00
2 | Cc1nnn(-c2ccc(C(F)F)cn2)c1COc1ccc(-n2cnc(C#N)c2)nn1 [Example 42, 1-[6-({1-[5-(difluoromethyl)pyridin-2-yl]-4-methyl-1H-1,2,3-triazol-5-yl}methoxy)pyridazin-3-yl]-1H-imidazole-4-carbonitrile] | 10.85
3 | Cc1nnn(-c2ccc(C(F)F)cn2)c1COc1ccc(-c2cc[nH]n2)nn1 [Example 5] | 7.80

same assay, conditions: read-out: Assay A: GABAA α 5 β 3 γ 2s Ki

Row | Structure (SMILES) | pKi
4 | Cc1nnn(-c2ccc(C(F)F)cn2)c1COc1ccc(-c2ccc(S(C)(=O)=O)nc2)nn1 [Example 16] | 7.68
5 | Cn1nnc(-c2ccc(C(F)F)cn2)c1COc1ccc(-c2cccc(C(N)=O)c2)nn1 [Example 28] | 7.62
6 | Cn1nnc(-c2ccc(C(F)F)cn2)c1COc1ccc(-c2cn[nH]c2)nn1 [Example 24] | 7.49
7 | Cc1c(-c2ccc(OCc3c(-c4ccc(C(F)F)cn4)nnn3C)nn2)cc(C#N)n1C [Example 29] | 7.72
8 | Cc1nnn(-c2ccc(C(F)F)cn2)c1COc1ccc(-c2cnn(CC#N)c2)nn1 [Example 7] | 7.59
9 | Cn1nnc(-c2ccc(C(F)F)cn2)c1COc1ccc(-c2cnccn2)nn1 [Example 39] | 7.41
10 | Cc1nn(C)cc1-c1ccc(OCc2c(-c3ccc(C(F)F)cn3)nnn2C)nn1 [Example 30] | 7.62
11 | Cn1nnc(-c2ccc(C(F)F)cn2)c1COc1ccc(-c2ccc(S(C)(=O)=O)nc2)nn1 [Example 23] | 7.31
12 | Cc1ncnn1-c1ccc(OCc2c(-c3ccc(C(F)F)cn3)nnn2C)nn1 [Example 48, 3-({4-[5-(difluoromethyl)pyridin-2-yl]-1-methyl-1H-1,2,3-triazol-5-yl}methoxy)-6-(5-methyl-1H-1,2,4-triazol-1-yl)pyridazine] | 7.09
13 | Cc1nnn(-c2ccc(C(F)F)cn2)c1COc1ccc(-n2ncnc2C)nn1 [Example 38] | 7.92
14 | Cc1n[nH]c(C)c1-c1ccc(OCc2c(C)nnn2-c2ccc(C(F)F)cn2)nn1 [Example 15] | 7.40
15 | Cn1nnc(-c2ccc(C(F)F)cn2)c1COc1ccc(-n2cccn2)nn1 [Example 50] | 7.66
16 | Cn1nnc(-c2ccc(C(F)F)cn2)c1COc1ccc(-n2cnc(C#N)c2)nn1 [Example 52] | 7.46
17 | Cc1nnn(-c2ccc(C(F)F)cn2)c1COc1ccc(-c2cn[nH]c2)nn1 [Example 4] | 7.77
18 | Cc1nnn(-c2ccc(C(F)F)cn2)c1COc1ccc(-c2ccc(N)nc2)nn1 [Example 19] | 7.77
19 | Cc1nnn(-c2ccc(C(F)F)cn2)c1COc1ccc(-c2cccc(C(N)=O)c2)nn1 [Example 6] | 7.82
20 | Cc1nnn(-c2ccc(C(F)F)cn2)c1COc1ccc(-c2cnccn2)nn1 [Example 56, 3-({1-[5-(difluoromethyl)pyridin-2-yl]-4-methyl-1H-1,2,3-triazol-5-yl}methoxy)-6-(pyrazin-2-yl)pyridazine] | 8.00
21 | COc1ncc(-c2ccc(OCc3c(-c4ccc(C(F)F)cn4)nnn3C)nn2)cn1 [Example 31] | 7.64
22 | Cc1ncc(-c2ccc(OCc3c(C)nnn3-c3ccc(C(F)F)cn3)nn2)o1 [Example 18] | 7.85

Row | Structure (SMILES) | pKi
23 | Cc1nnn(-c2ccc(C(F)F)cn2)c1COc1ccc(-c2ccc(=O)n(C)c2)nn1 [Example 1, 5-[6-({1-[5-(difluoromethyl)pyridin-2-yl]-4-methyl-1H-1,2,3-triazol-5-yl}methoxy)pyridazin-3-yl]-1-methyl-1,2-dihydropyridin-2-one] | 8.00
24 | Cn1nnc(-c2ccc(C(F)F)cn2)c1COc1ccc(-c2ccc(N)nc2)nn1 [Example 25] | 7.64
25 | CCn1cc(-c2ccc(OCc3c(-c4ccc(C(F)F)cn4)nnn3C)nn2)cn1 [Example 22] | 7.72
26 | CNc1cccc(-c2ccc(OCc3c(C)nnn3-c3ccc(C(F)F)cn3)nn2)n1 [Example 14] | 7.48
27 | Cc1c(-c2ccc(OCc3c(-c4ccc(C(F)F)cn4)nnn3C)nn2)cnn1C [Example 33] | 7.62
28 | Cn1nnc(-c2ccc(C(F)F)cn2)c1COc1ccc(-c2cnn(C3CCC3)c2)nn1 [Example 32] | 7.74
29 | Cc1nnn(-c2ccc(C(F)F)cn2)c1COc1ccc(-n2cnc(C#N)c2)nn1 [Example 42, 1-[6-({1-[5-(difluoromethyl)pyridin-2-yl]-4-methyl-1H-1,2,3-triazol-5-yl}methoxy)pyridazin-3-yl]-1H-imidazole-4-carbonitrile] | 7.85
30 | Cc1nnn(-c2ccc(C(F)F)cn2)c1COc1ccc(-c2ccc(C#N)s2)nn1 [Example 12] | 7.72
31 | Cc1nnn(-c2ccc(C(F)F)cn2)c1COc1ccc(-c2cc[nH]n2)nn1 [Example 5] | 7.80
32 | Cn1nnc(-c2ccc(C(F)F)cn2)c1COc1ccc(-c2cnc3nonc3c2)nn1 [Example 35] | 7.31
33 | Cc1nnn(-c2ccc(C(F)F)cn2)c1COc1ccc(-c2ccc(C#N)nc2)nn1 [Example 8] | 7.74
34 | Cc1nnn(-c2ccc(C(F)F)cn2)c1COc1ccc(-n2cc(C#N)cn2)nn1 [Example 37] | 7.96
35 | Cc1nnn(-c2ccc(C(F)F)cn2)c1COc1ccc(-c2c[nH]c(=O)c(F)c2)nn1 [Example 20] | 7.80
36 | Cc1cc(-c2ccc(OCc3c(C)nnn3-c3ccc(C(F)F)cn3)nn2)cnn1 [Example 3] | 7.89
37 | Cc1nnn(-c2ccc(C(F)F)cn2)c1COc1ccc(-c2cnc(N)nc2)nn1 [Example 2] | 7.82
38 | Cn1nnc(-c2ccc(C(F)F)cn2)c1COc1ccc(-n2ccc(C#N)n2)nn1 [Example 53] | 7.72
39 | Cc1nnn(-c2ccc(C(F)F)cn2)c1COc1ccc(-n2nccn2)nn1 [Example 43] | 7.55
40 | Cn1nnc(-c2ccc(C(F)F)cn2)c1COc1ccc(-n2cc(C#N)cn2)nn1 [Example 49] | 7.60
41 | Cc1nnn(-c2ccc(C(F)F)cn2)c1COc1ccc(-c2ccnnc2)nn1 [Example 17] | 7.80
